Test results as given in the supplement of paper PMC10307832.

Key:
Test in all cases: relative viability (nuclei count vs DMSO), 5 days (fraction); higher = more cells survive
Trametinib + OSI-027 = compound: CC(=O)Nc1cccc(-n2c(=O)n(C3CC3)c(=O)c3c(Nc4ccc(I)cc4F)n(C)c(=O)c(C)c32)c1 [Trametinib] + COc1cccc2cc(-c3nc([C@H]4CC[C@H](C(=O)O)CC4)n4ncnc(N)c34)[nH]c12 [OSI-027] (partner 0.5 µM)
Summary of the method: (§1)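 After 5 days of treatment, lung cancer cells in 1536-well plates were fixed and stained in a single step (final 0.05% Triton X-100, 1% formaldehyde, 1 ug/ml Hoechst) and their nuclei counted on 4× images. Treatment had been applied by pin tool the day after seeding as one drug alone or as a fixed anchor-drug dose with five library-drug doses (not always all listed) in √10 steps. Relative viability is the nuclei count of treated wells divided by that of vehicle wells, and values are medians of duplicate plates.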

Trametinib + Vorinostat = compound: CC(=O)Nc1cccc(-n2c(=O)n(C3CC3)c(=O)c3c(Nc4ccc(I)cc4F)n(C)c(=O)c(C)c32)c1 [Trametinib] + O=C(CCCCCCC(=O)Nc1ccccc1)NO [Vorinostat] (partner 1 µM)
Summary of the method: as §1

[1] = compound: CN1C=C(C2=CC=CC=C21)/C=C\3/C4=C(C=CC=N4)NC3=O + CS(=O)(=O)N1CCN(Cc2cc3nc(-c4cccc5[nH]ncc45)nc(N4CCOCC4)c3s2)CC1 [Pictilisib] (partner 1 µM)
Summary of the method: as §1

[2] = compound: CN1C=C(C2=CC=CC=C21)/C=C\3/C4=C(C=CC=N4)NC3=O + C[C@@H](Oc1cc(-c2cnn(C3CCNCC3)c2)cnc1N)c1c(Cl)ccc(F)c1Cl [Crizotinib] (partner 1 µM)
Summary of the method: as §1

Cell Line	relative viability (Trametinib + OSI-027; first compound 0.0025 µM)	relative viability (Trametinib + OSI-027; first compound 0.007906 µM)	relative viability (Trametinib + OSI-027; first compound 0.025 µM)	relative viability (Trametinib + OSI-027; first compound 0.07906 µM)	relative viability (Trametinib + OSI-027; first compound 0.25 µM)	relative viability (Trametinib + Vorinostat; first compound 0.0025 µM)	relative viability (Trametinib + Vorinostat; first compound 0.007906 µM)	relative viability (Trametinib + Vorinostat; first compound 0.025 µM)	relative viability (Trametinib + Vorinostat; first compound 0.07906 µM)	relative viability (Trametinib + Vorinostat; first compound 0.25 µM)	relative viability ([1]; first compound 0.02 µM)	relative viability ([1]; first compound 0.06325 µM)	relative viability ([1]; first compound 0.2 µM)	relative viability ([1]; first compound 0.6325 µM)	relative viability ([1]; first compound 2 µM)	relative viability ([2]; first compound 0.02 µM)	relative viability ([2]; first compound 0.06325 µM)	relative viability ([2]; first compound 0.2 µM)	relative viability ([2]; first compound 0.6325 µM)	relative viability ([2]; first compound 2 µM)
NCI-H727	0.426	0.39	0.266	0.274	0.317	0.961	0.851	0.424	0.387	0.382	0.363	0.304	0.208	0.299	0.484	0.835	0.614	0.691	0.81	0.808
NCI-H1975	0.643	0.422	0.402	0.299	0.196	0.643	0.542	0.48	0.456	0.351	0.297	0.255	0.251	0.246	0.246	0.749	0.939	0.915	0.817	0.796
NCI-H460	0.557	0.332	0.244	0.141	0.0441	0.621	0.482	0.376	0.12	0.0929	0.508	0.324	0.285	0.292	0.335	0.994	0.99	0.932		0.902
EPLC-272H	0.319	0.285	0.192	0.129	0.183	0.455	0.368	0.233	0.148	0.162	0.294	0.285		0.27	0.304	0.924	0.96		0.909	1.06
SK-LU-1	0.319	0.313	0.217	0.198	0.188	0.753	0.748	0.657	0.52	0.381	0.425	0.544	0.63	0.472	0.543	0.619	0.809	1.14	1.07	1.1
NCI-H322M	0.504	0.483	0.467	0.41	0.383	0.797	0.691	0.62	0.557	0.555	0.431	0.552	0.498	0.478	0.542	0.827	0.841	0.876	0.902	0.933
NCI-H2405	0.651	0.621	0.488	0.43	0.412	0.985	0.853	0.649		0.601	0.423	0.399	0.401	0.388	0.41	0.769	0.832		0.829	0.821
NCI-H1666	0.765	0.811	0.632	0.675	0.552	0.989	0.946	0.871	0.861	0.713	0.552	0.322	0.318	0.272	0.26	0.847	0.822	0.704	1.17	0.927
NCI-H358	0.393	0.341	0.19	0.174	0.14	0.367	0.27	0.266	0.205	0.154	0.33	0.319	0.301	0.338	0.387	0.56	0.497	0.606	0.601	0.633
H3255	0.595	0.571	0.462	0.397	0.338	0.903	0.799	0.509	0.709	0.905	0.41	0.453	0.395	0.501	0.475	0.91	0.935	0.874	0.888	0.889
LCLC-103H	0.463	0.44	0.379	0.334	0.421	0.808	0.636	0.699	0.631	0.588	0.721	0.672	0.553	0.53	0.584	1.11	1.13	1.05	1.13	1.07
NCI-H2347	0.394	0.216	0.185	0.226	0.167	0.467	0.358	0.289	0.329	0.358	0.527	0.704	0.572	0.438	0.658	0.588	0.802	0.607	0.694	0.674
LK-2	0.197	0.205	0.164	0.18	0.186	0.346	0.288	0.164	0.344	0.326		0.364	0.458	0.453	0.557		0.205	0.202	0.243	0.219
HCC-15	0.436	0.338	0.201	0.161	0.167	0.814	0.549	0.395	0.276	0.275	0.717	0.639	0.775	0.666	0.771	0.805	0.795	0.887	0.897	0.955
SW 1573	0.474	0.486	0.344	0.338	0.285	0.755	0.663	0.437	0.491	0.278	0.474	0.489	0.51	0.532	0.521	0.727	0.832	0.816	0.712	0.874
NCI-H838	0.301	0.298	0.227	0.281	0.236	0.682	0.591	0.598	0.631	0.568	0.311	0.351	0.464	0.4	0.381	0.615	0.657	0.761	0.707	0.833
RERF-LC-KJ	0.493	0.471	0.414	0.459	0.372	0.549	0.621	0.6	0.569	0.472	0.748	0.524	0.55	0.445	0.497	0.831	0.829	0.787	0.77	0.718
ChaGo-K-1	0.558	0.488	0.51	0.423	0.403	0.659	0.623	0.685	0.731	0.418	0.607	0.62		0.403	0.571	1.07	1.11		1.16	1.21
NCI-H441	0.543	0.56	0.392	0.446	0.196	0.819	0.797	0.722	0.749	0.608	0.477	0.426	0.474	0.402	0.595	0.972	0.706	0.72	0.89	0.767
NCI-H2170	0.754	0.659	0.392	0.613	0.616	0.821	0.723		0.73	0.803		0.312	0.235	0.317	0.242		1.13	1.35	1.16	1.15
PC-14	0.843	0.72	0.427	0.411	0.155	0.781	0.599	0.535	0.438	0.0917	0.573	0.662	0.881	0.635	0.691	0.91	0.791	1	0.856	0.958
NCI-H2009	0.505	0.405	0.229	0.226	0.247	0.76	0.634	0.341	0.354	0.336	0.804	0.672	0.682	0.8	0.792	0.958	0.97	1.05	1.15	1.14
NCI-H1437	0.565	0.518	0.262	0.3	0.295	0.813	0.642	0.516	0.447	0.377	0.432	0.399	0.466	0.403	0.493	0.878	0.898	0.989	0.915	1.14
NCI-H647	0.674	0.696	0.533	0.368	0.175	0.634	0.562	0.642	0.465	0.196	0.379	0.292		0.324	0.312	0.967	0.923	1.04	1.03	0.906
SK-MES-1	0.647	0.582	0.46	0.447	0.266	0.994	0.894	0.744	0.511	0.337	0.338	0.308	0.346	0.342	0.302	0.972	0.84	1.03	0.976	0.967
NCI-H2087	0.323	0.275	0.139	0.137	0.101	0.595	0.368	0.463	0.237	0.12	0.942	0.833	0.769	0.793	0.951	0.96	0.701	1.1	0.889	0.868
BEN	0.317	0.274	0.27	0.294	0.325	0.62	0.57	0.49	0.57	0.624	0.541	0.596	0.504	0.478	0.532	0.896	0.807	0.761	0.779	0.956
